Assay results published in patent US20250353812A1, “2,6-DIBENZYLIDENECYCLOHEXANONE OXIME COMPOUND AND PREPARATION METHOD THEREFOR AND USE THEREOF” (WENZHOU MEDICAL UNIVERSITY, priority 2022, published 2025).

Key:
[1] = test system: IL-6; test: Inhibition of IL-6 release from J774A.1 macrophages stimulated by LPS (ELISA); type: cell-based; settings: 10 μM compound pretreatment 2 h, then 0.5 μg/mL LPS 22 h, LPS control = 100, FIG. 1
Protocol: (§1) The present invention tested the dose-effect relationship of some of the compounds of Examples in inhibiting the release of IL-6 and TNF-α from J774A.1 macrophages stimulated by LPS. The specific method is as follows: 1.2×10^6 […] macrophages were cultured by DMEM culture solution at 37° C., the culture solution was renewed after 24 h, the tested example compound (at a final concentration of 10 μM) was added for pretreatment for 2 h and then continuously treated by 0.5 μg/mL of LPS for 22 h, the culture solution was collected, and the content of IL-6 and TNF-α was detected by ELISA method. The total protein concentration was measured by collecting cells, the ELISA results were divided by the corresponding total protein concentration and calibrated by the IL-6 and TNF-α content of LPS control group as 100, and the average and error values were calculated.

[2] = test system: TNF-α; test: Inhibition of TNF-α release from J774A.1 macrophages stimulated by LPS (ELISA); type: cell-based; settings: 10 μM compound pretreatment 2 h, then 0.5 μg/mL LPS 22 h, LPS control = 100, FIG. 2
Protocol: as §1

[3] = test system: liver inflammation in obese mice; test: Protective effect on liver inflammation in obese mice (high-fat diet); type: in vivo; settings: HFD mice, Example 9 12 mg/kg, intragastric gavage every two days for 8 weeks
Protocol: (§2) A suspension of 0.5% sodium carboxymethylcellulose and the compounds of Examples was prepared for intragastric administration. The blank control group and the high-fat diet obesity model group were administrated with equal doses of solvent (0.5% CMC-Na solution) intragastrically. The mice were first adaptively raised for 1 week, and when the mice were 8 weeks old, they were randomly divided into 2 groups (A: Con, B: HFD). Group A was fed with normal mouse feed, and mice in group B were fed with 60% high-fat feed for 16 weeks. After the model was successfully established at 12 weeks, the mice in group B were randomly divided into three groups (i: HFD, ii: HFD+Example 9, 12 mg/kg, iii: HFD+Example 2, 10 mg/kg). The body weight of the mice was measured and recorded every week, and groups ii and iii were treated with the compounds of Examples by intragastric gavage every two days for 8 weeks. After 24 weeks, the mice were anesthetized and sacrificed, and blood samples were collected and centrifuged to collect serum for various serum biochemical tests; the liver was removed, and the liver tissue was cut and embedded (frozen and paraffin) for immunohistochemistry and other analyses. The remaining liver tissues were snap frozen in liquid nitrogen and stored in a −80° C. freezer.
Taking the compounds of Examples 2 and 9 as examples, the experimental results are shown in FIGS. 3A-3D and FIGS. 4A-4E, where 2 and 9 represent the compounds of Example 2 and Example 9, respectively. Inflammation was assessed by examining macrophage infiltration in the liver using the macrophage-specific marker F4/80 staining. […] In addition, the expression of TNF-α, IL-6 and IL-1β genes in liver tissue was detected.

[4] = test system: liver lipid metabolism of obese mice; test: Protective effect on liver lipid metabolism of obese mice (high-fat diet); type: in vivo; settings: HFD mice; Example 9 12 mg/kg, Example 2 10 mg/kg, intragastric gavage every two days for 8 weeks
Protocol: as §2
The liver lipid metabolism of obese mice is taken as an example. […] It can be clearly seen from the above test results that the compound having the structure of formula I of the present invention has a protective effect on the liver lipid metabolism of obese mice.

Compound | inhibitory effect on the release of IL-6 [1] | inhibitory effect on the release of TNF-α [2] | also measured
FC(F)(F)c1ccccc1/C=C1\CCC/C(=C\c2ccccc2C(F)(F)F)C1=NOCC1OCCO1 [Example 27, 2,6-(E,E)-(2-(trifluoromethyl)benzylidene)cyclohexan-1-one-((1,3-dioxolan-2-yl)methyl)oxime] | significant inhibitory effect | significant inhibitory effect | –
FC(F)(F)c1ccccc1/C=C1\CCC/C(=C\c2ccccc2C(F)(F)F)C1=NOCC1CCCC1 [Example 13, 2,6-(E,E)-(2-(trifluoromethyl)benzylidene)cyclohexan-1-one cyclopentylmethyl oxime] | significant inhibitory effect | – | –
FC(F)(F)c1ccccc1/C=C1\CCC/C(=C\c2ccccc2C(F)(F)F)C1=NOCCCN1CCCC1 [Example 6, 2,6-(E,E)-(2-(trifluoromethyl)benzylidene)cyclohexan-1-one-3-(pyrrolidin-1-yl)propyl oxime] | significant inhibitory effect | – | –
CC(C)ON=C1/C(=C/c2ccccc2F)CCC/C1=C\c1ccccc1F [Example 33, 2,6-(E,E)-(2-(fluoro)benzylidene)cyclohexan-1-one isopropyl oxime] | significant inhibitory effect | significant inhibitory effect | –
Fc1ccc(CON=C2/C(=C/c3ccccc3C(F)(F)F)CCC/C2=C\c2ccccc2C(F)(F)F)cc1 [Example 19, 2,6-(E,E)-(2-(trifluoromethyl)benzylidene)cyclohexan-1-one-4-fluorobenzyl oxime] | – | significant inhibitory effect | –
FC(F)(F)c1ccccc1/C=C1\CCC/C(=C\c2ccccc2C(F)(F)F)C1=NOCC1CCOCC1 [Example 28, 2,6-(E,E)-(2-(trifluoromethyl)benzylidene)cyclohexan-1-one-(tetrahydro-2H-pyran-4-yl) methyl oxime] | significant inhibitory effect | significant inhibitory effect | –
FC(F)(F)c1ccccc1/C=C1\CCC/C(=C\c2ccccc2C(F)(F)F)C1=NOCCN1CCOCC1 [Example 7, 2,6-(E,E)-(2-(trifluoromethyl)benzylidene)cyclohexan-1-one-2-(morpholinoethyl)oxime] | significant inhibitory effect | significant inhibitory effect | –
CC(C)ON=C1/C(=C/c2ccccc2C(F)(F)F)CCC/C1=C\c1ccccc1C(F)(F)F [Example 10, 2,6-(E,E)-(2-(trifluoromethyl)benzylidene)cyclohexan-1-one isopropyl oxime] | significant inhibitory effect | – | –
Oc1ccc(/C=C2\CCC/C(=C\c3ccc(O)cc3)C2=NOCC2CCCC2)cc1 [Example 37, 2,6-(E,E)-(4-(hydroxy)benzylidene)cyclohexan-1-one cyclopentylmethyl oxime] | significant inhibitory effect | significant inhibitory effect | –
Fc1ccc(CCON=C2/C(=C/c3ccccc3C(F)(F)F)CCC/C2=C\c2ccccc2C(F)(F)F)cc1 [Example 25, 2,6-(E,E)-(2-(trifluoromethyl)benzylidene)cyclohexan-1-one-4-(fluorophenethyl)oxime] | significant inhibitory effect | significant inhibitory effect | –
ON=C1/C(=C/c2ccccc2C(F)(F)F)CCC/C1=C\c1ccccc1C(F)(F)F [Example 9, 2,6-(E,E)-(2-(trifluoromethyl)benzylidene)cyclohexanone oxime] | significant inhibitory effect | significant inhibitory effect | macrophage infiltration in the liver (F4/80 staining) ([3]; Example 2 10 mg/kg): decreased; upregulation of IL-1β gene in mouse liver tissue (mRNA) ([3]; Example 2 10 mg/kg): significantly alleviated; upregulation of IL-6 gene in mouse liver tissue (mRNA) ([3]; Example 2 10 mg/kg): significantly alleviated; upregulation of TNF-α gene in mouse liver tissue (mRNA) ([3]; Example 2 10 mg/kg): significantly alleviated; degradation of IκB-α in the liver caused by high-fat diet feeding (Western blot) [3]: significantly inhibit; dyslipidemia caused by high-fat diet feeding (serum triglycerides, low-density lipoprotein cholesterol, total cholesterol) [4]: significantly alleviated; lipid accumulation in the liver (H&E staining) [4]: significantly alleviated; lipid accumulation in the liver (oil red staining of frozen sections, quantified) [4]: significantly alleviates
CN1CCN(CCCON=C2/C(=C/c3ccccc3C(F)(F)F)CCC/C2=C\c2ccccc2C(F)(F)F)CC1 [Example 30, 2,6-(E,E)-(2-(trifluoromethyl)benzylidene)cyclohexan-1-one-(3-(4-methylpiperazin-1-yl)propyl)oxime] | significant inhibitory effect | – | –
Fc1cccc(CON=C2/C(=C/c3ccccc3C(F)(F)F)CCC/C2=C\c2ccccc2C(F)(F)F)c1 [Example 18, 2,6-(E,E)-(2-(trifluoromethyl)benzylidene)cyclohexan-1-one-3-fluorobenzyl oxime] | significant inhibitory effect | – | –
FC(F)(F)c1ccccc1/C=C1\CCC/C(=C\c2ccccc2C(F)(F)F)C1=NOCCC1OCCO1 [Example 29] | – | significant inhibitory effect | –
Cc1cccc(CCON=C2/C(=C/c3ccccc3C(F)(F)F)CCC/C2=C\c2ccccc2C(F)(F)F)c1 [Example 22, 2,6-(E,E)-(2-(trifluoromethyl)benzylidene)cyclohexan-1-one-3-(methylphenylethyl)oxime] | – | significant inhibitory effect | –
FC(F)(F)c1ccccc1/C=C1\CCC/C(=C\c2ccccc2C(F)(F)F)C1=NOCc1c(Cl)cccc1Cl [Example 20, 2,6-(E,E)-(2-(trifluoromethyl)benzylidene)cyclohexan-1-one-2,6-dichlorobenzyl oxime] | significant inhibitory effect | – | –
COCCON=C1/C(=C/c2ccc(OC)cc2)CCC/C1=C\c1ccc(OC)cc1 [Example 35, 2,6-(E,E)-(4-(methoxy)benzylidene)cyclohexan-1-one-(2-methoxyethyl)oxime] | significant inhibitory effect | significant inhibitory effect | –
COc1cccc(CON=C2/C(=C/c3ccccc3C(F)(F)F)CCC/C2=C\c2ccccc2C(F)(F)F)c1 [Example 16, 2,6-(E,E)-(2-(trifluoromethyl)benzylidene)cyclohexan-1-one-3-methoxybenzyl oxime] | significant inhibitory effect | – | –
CCCON=C1/C(=C/c2ccccc2)CCC/C1=C\c1ccccc1 [Example 32, 2,6-(E,E)-(benzylidene)cyclohexan-1-one propyl oxime] | significant inhibitory effect | significant inhibitory effect | –
FC(F)(F)c1ccccc1/C=C1\CCC/C(=C\c2ccccc2C(F)(F)F)C1=NOCCN1CCCC1 [Example 5] | significant inhibitory effect | – | –
FC(F)(F)c1ccccc1/C=C1\CCC/C(=C\c2ccccc2C(F)(F)F)C1=NOCC1CCCO1 (centres unmarked) [Example 26, 2,6-(E,E)-(2-(trifluoromethyl)benzylidene)cyclohexan-1-one-((tetrahydrofuran-2-yl)methyl)oxime] | – | significant inhibitory effect | –
Clc1ccc(/C=C2\CCC/C(=C\c3ccc(Cl)c(Cl)c3)C2=NOCCN2CCOCC2)cc1Cl [Example 39, 2,6-(E,E)-(3,4-(dichloro)benzylidene)cyclohexan-1-one-2-(morpholinoethyl)oxime] | significant inhibitory effect | significant inhibitory effect | –
Fc1cccc(CCON=C2/C(=C/c3ccccc3C(F)(F)F)CCC/C2=C\c2ccccc2C(F)(F)F)c1 [Example 24, 2,6-(E,E)-(2-(trifluoromethyl)benzylidene)cyclohexan-1-one-3-(fluorophenethyl)oxime] | – | significant inhibitory effect | –
